Experimental data taken from publication doi:10.1101/2023.02.27.530254, “Large library docking for cannabinoid-1 receptor agonists with reduced side effects” (bioRxiv, 2024).
Where two headings read alike, the source gives them in different places.

Columns and labels:
CB1 = molecular target: T1, CB1 (Rattus norvegicus, UniProt P20272); assay: Radioligand competition binding with [3H]-CP-55,940, rat brain membranes; conditions: for Emax: read-out: rCB1 binding Emax [SEM]
T1 construct: membrane preparations from rat brain (source of CB1); tissue Bioivt RAT00BRAINMZN; host or cells: rat brain
Protocol: The results were analyzed using nonlinear regression to determine the IC50 and Ki values for each ligand (Prism by GraphPad Software, Inc., San Diego, CA). The Ki values are expressed as the mean of two to three experiments each performed in triplicate.

hCB1 = hCB1 (Homo sapiens, UniProt P21554); assay: bioSens-All ebBRET effector biosensor signaling profiling, HEK293; assay type: cell-based; set-up: host or cells: HEK293 (HEK293SL clone), transient
Protocol: ebBRET-based effector membrane translocation biosensor assays were conducted at Domain Therapeutics NA Inc. (Montreal, QC, Canada) as previously described. […] HEK293 cells were maintained in Dulbecco’s Modified Eagle Medium (DMEM) (Wisent) supplemented with 1% penicillin- streptomycin (Wisent) and 10% (or 2 % for transfection) fetal bovine serum (Wisent) at 37°C with 5% CO2. All biosensor-coding plasmids and related information are the property of Domain Therapeutics NA Inc. The total amount of transfected DNA was adjusted and kept constant at 1 μg per mL of cell culture to be transfected using salmon sperm DNA (Invitrogen) as ‘carrier’ DNA, PEI (polyethylenimine 25 kDa linear, PolyScience) and DNA (3:1 ml PEI:mg DNA ratio) were first diluted separately in 150 mM NaCl then mixed and incubated for at least 20 minutes at room temperature to allow for the formation of DNA/PEI complexes. During the incubation, HEK293 cells were detached, counted, and re-suspended in maintenance medium to a 350,000 cells per mL density. At the end of the incubation period, the DNA/PEI mixture was added to the cells. Cells were finally distributed in 96-well plates (White Opaque 96-well /Microplates, Greiner) at a density of 35,000 cells per well. Forty-eight hours post-transfection, medium was aspirated and replaced with 100 μl of Hank’s Balanced Salt Solution buffer (HBSS) (Wisent) per well using 450-Select TS Biotek plate washer. After 60 min incubation in this medium, 10 μL of 10 μM e-Coelenterazine Prolume Purple (Methoxy e-CTZ) (Nanolight) was added to each well for a final concentration of 1 μM immediately followed by addition of increasing concentrations of the test compounds to each well using the HP D300 digital dispenser (Tecan). All compounds were assayed at 22 concentrations with each biosensor after a 10-minute room temperature incubation period. […] All BRET ratios were standardized using the universal BRET (uBRET) equation: uBRET=BRETratio-A/B-A×10,000 where A is the BRET ratio obtained from transfection of negative control and B is the BRET ratio obtained from transfection of positive control. […] The data were analyzed using the four-parameter logistic non-linear regression model in GraphPad Prism 9.1 and data were presented as means ± CIs of 1–4 independent experiments.
The SEM was calculated for the logEmax/EC50 ratios using the following equation: SEM=σ/n where σ is the standard deviation, and n is the number of experiments.

C56BL/6 mice = assay: Catalepsy test (vertical wire mesh); assay type: in vivo, mouse; conditions: non-cannabinoid positive control
Protocol: Thirty and 60 minutes after an i.p. injection of the compounds, mice were placed on a vertical wire mesh and the latency to move all four paws was recorded.

[1] = maximal radioligand displacement
[2] = rCB1 binding Ki [95% CI], [3H]-CP-55,940 competition, rat brain membranes
[3] = HEK293, read-out: hCB1 Gi1 Emax [95% CI]
[4] = HEK293, read-out: hCB1 GoB Emax [95% CI]
[5] = HEK293, read-out: hCB1 Gz Emax [95% CI]
[6] = hCB1 GoB EC50 [95% CI], GoB sensor

T1 sequence (P20272 whole entry): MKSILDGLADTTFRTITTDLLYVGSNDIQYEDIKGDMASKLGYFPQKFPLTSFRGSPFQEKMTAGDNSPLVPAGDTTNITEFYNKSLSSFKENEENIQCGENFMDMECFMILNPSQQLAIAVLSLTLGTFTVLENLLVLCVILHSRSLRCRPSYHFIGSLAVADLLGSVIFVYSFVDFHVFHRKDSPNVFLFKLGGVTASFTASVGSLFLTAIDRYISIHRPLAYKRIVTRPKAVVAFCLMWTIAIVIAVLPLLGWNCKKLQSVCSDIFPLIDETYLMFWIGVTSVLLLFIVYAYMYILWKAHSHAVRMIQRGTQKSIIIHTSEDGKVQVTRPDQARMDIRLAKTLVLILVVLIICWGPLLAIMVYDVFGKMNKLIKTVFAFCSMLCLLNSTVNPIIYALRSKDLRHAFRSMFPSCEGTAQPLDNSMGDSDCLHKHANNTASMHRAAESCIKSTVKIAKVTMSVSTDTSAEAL
Chain of hCB1 (P21554 whole entry, the tested form may be a part): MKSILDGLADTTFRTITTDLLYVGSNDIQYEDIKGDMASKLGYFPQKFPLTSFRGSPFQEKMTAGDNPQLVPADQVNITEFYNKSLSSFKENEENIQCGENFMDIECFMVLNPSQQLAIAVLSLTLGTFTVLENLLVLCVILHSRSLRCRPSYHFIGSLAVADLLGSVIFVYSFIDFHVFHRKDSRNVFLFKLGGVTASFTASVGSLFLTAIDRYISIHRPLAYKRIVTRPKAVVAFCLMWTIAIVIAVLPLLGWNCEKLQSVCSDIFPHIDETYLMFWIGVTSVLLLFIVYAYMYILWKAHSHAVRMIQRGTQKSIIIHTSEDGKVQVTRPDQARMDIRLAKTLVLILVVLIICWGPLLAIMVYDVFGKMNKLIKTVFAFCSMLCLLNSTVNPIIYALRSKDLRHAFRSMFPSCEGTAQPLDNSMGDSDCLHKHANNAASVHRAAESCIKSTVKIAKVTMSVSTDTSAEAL

In the case of `CCCCCCC(C)(C)c1cc(O)c2c(c1)OC(C)(C)C1CCC(=O)CC21` (stereo not shown) [Nabilone, reference compound], the Emax (CB1; [1]) is reported as 81% and the Ki (CB1; rCB1 binding pKi [95% CI], [3H]-CP-55,940 competition, rat brain membranes) is reported as 2.51 nM.

In the case of `CC(=O)C(c1cccs1)N(C)C(=O)c1cc(C)n(-c2cccc(C(F)(F)F)c2)n1` (stereo not shown) [‘6829], the Emax (CB1; [1]) is reported as 106%, the Ki (CB1; [2]) is reported as 1050 nM and the Emax (hCB1; [3]) is reported as 68%. For the same molecule, the Emax (hCB1; [4]) was 49%, the Emax (hCB1; [5]) was 70% and the EC50 (hCB1; hCB1 Gi1 EC50 [95% CI]) was 4060 nM. It also gave an EC50 (hCB1; hCB1 GoB EC50 [95% CI]) of 1010 nM and an EC50 (hCB1; hCB1 Gz EC50 [95% CI]) of 1350 nM.

`COC(=O)C(c1ccco1)N(C)C(=O)c1cc(C)n(-c2cccc(C(F)(F)F)c2)n1` (stereo not shown) [‘6425] was tested, and the Emax (CB1; [1]) was 108% and the Ki (CB1; [2]) was 934 nM.

`COC(=O)[C@@H](c1cccs1)N(C)C(=O)c1cc(C)n(-c2cccc(C(F)(F)F)c2)n1` [‘6000] showed an Emax (CB1; [1]) of 96% and a Ki (CB1; [2]) of 1460 nM.

In the case of `Cc1cc(C(=O)NC(c2ccccc2)c2ccco2)nn1-c1cccc(C(F)(F)F)c1` (stereo not shown) [‘1081], the Emax (CB1; [1]) is reported as 96%, the Ki (CB1; [2]) is reported as 116 nM and the Emax (hCB1; [3]) is reported as 49%. It also gave an Emax (hCB1; [4]) of 45%, an Emax (hCB1; [5]) of 72% and an EC50 (hCB1; hCB1 Gi1 EC50 [95% CI]) of 150 nM. For the same molecule, the EC50 (hCB1; [6]) was 91.7 nM, the EC50 (hCB1; hCB1 Gz EC50 [95% CI]) was 225 nM and the EC50 (hCB1; hCB1 Gz pEC50 [95% CI]) was 200 nM.

For `Cc1cc(C(=O)N(C)C(c2ccco2)c2ccco2)nn1-c1cccc(C(F)(F)F)c1` [‘4388], the “rCB1 binding pKi [95% CI]” value (CB1; [3H]-CP-55,940 competition, rat brain membranes) was 5.9 [5.7 – 6.0], the “rCB1 binding Emax [SEM]” value (CB1; [1]) was 113% and the Ki (CB1; read-out: rCB1 binding Ki [95% CI], [3H]-CP-55,940 competition, rat brain membranes) was 1360 nM.

For `COC(=O)C(NC(=O)c1cc(-c2ccccc2)n(-c2cccc(C(F)(F)F)c2)n1)c1cccs1` (stereo not shown) [‘8079], the Emax (CB1; [1]) was 104% and the Ki (CB1; [2]) was 18.5 nM.

In the case of `Cc1nn(Cc2ccc(Cl)cc2)c(C)c1C(=O)OCC1CSc2ccccc2O1` (stereo not shown) [‘5463], the Emax (CB1; [1]) is reported as 88%, the Ki (CB1; [2]) is reported as 825 nM and the Emax (hCB1; [3]) is reported as 31%. For the same molecule, the Emax (hCB1; [4]) was 32%, the EC50 (hCB1; hCB1 Gi1 EC50 [95% CI]) was 4940 nM and the EC50 (hCB1; hCB1 GoB EC50 [95% CI]) was 7470 nM.

Molecule `Cc1cc(C(=O)NC(c2ccco2)c2ccco2)nn1-c1cccc(C(F)(F)F)c1` [‘1090] has an Emax (CB1; [1]) of 99%, a Ki (CB1; [2]) of 90.8 nM and an Emax (hCB1; [3]) of 81%. It also gave an Emax (hCB1; [4]) of 90%, an Emax (hCB1; [5]) of 115% and an EC50 (hCB1; hCB1 Gi1 EC50 [95% CI], Gi1 sensor) of 35.6 nM. It also gave an EC50 (hCB1; hCB1 Gi1 pEC50 [95% CI], Gi1 sensor) of 31.6 nM, an EC50 (hCB1; [6]) of 37.3 nM and an EC50 (hCB1; hCB1 Gz EC50 [95% CI]) of 126 nM.

`COC(=O)C(NC(=O)c1cc(C)n(-c2cccc(C#N)c2)n1)c1ccsc1` (stereo not shown) [‘31604] showed an Emax (CB1; [1]) of 100% and a Ki (CB1; [2]) of 801 nM.

With `O=C(CCCN1CCC(O)(c2ccc(Cl)cc2)CC1)c1ccc(F)cc1` [haloperidol, reference compound] the catalepsy (C56BL/6 mice) was “dramatic catalepsy”.

`Cc1c(C(=O)OCC2CSc3ccccc3O2)cnn1Cc1ccccc1` (stereo not shown) [‘7800] gave a Ki (CB1; [2]) of 1010 nM, an Emax (hCB1; [3]) of 34% and an Emax (hCB1; [4]) of 21%. It also gave an EC50 (hCB1; hCB1 Gi1 EC50 [95% CI]) of 6790 nM and an EC50 (hCB1; hCB1 GoB EC50 [95% CI]) of 597 nM.

In the case of `COC(=O)[C@@H]1[C@@H]2CCC[C@@H]2CN1C(=O)c1nn(-c2cccc(C(F)(F)F)c2)c2c1CCC2` [10_17], the “% [3H]-CP-55,940 displacement (mean) from single point screen” value (CB1; screens at 10 μM (white cells), 1 μM (orange) or 300 nM (green), cell colours not visible) is reported as 98.24%.
